In ChEMBL document CHEMBL1201862, “PubChem BioAssay data set” (2004):
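Results reflect a 48-hour exposure of cells in 96-well plates to compound at five concentrations. At the GI50, growth is halved.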 The source made the active and inactive calls. Rule as the data show it: active = GI50 up to about 1.1 µM and inactive = higher.

Columns and labels:
Assay in all cases: growth of human tumour cells (NCI), 48 h
HCT-15 = tested on: HCT-15
HOP-62 = tested on: HOP-62
OVCAR-5 = tested on: OVCAR-5
SK-MEL-2 = tested on: SK-MEL-2
MOLT-4 = tested on: MOLT-4
HCT-116 = tested on: HCT-116
SW-620 = tested on: SW-620
HL-60 = tested on: HL-60
IGROV-1 = tested on: IGROV-1
A498 = tested on: A498
OVCAR-3 = tested on: OVCAR-3
RPMI-8226 = tested on: RPMI-8226
SF-295 = tested on: SF-295
Malme-3M = tested on: Malme-3M
MDA-MB-435 = tested on: MDA-MB-435
Hs-578T = tested on: Hs-578T
NCI/ADR-RES = tested on: NCI/ADR-RES
RXF 393 = tested on: RXF 393

Row | SMILES | GI50 (HCT-15) [µM] | GI50 (HOP-62) | GI50 (OVCAR-5) | GI50 (SK-MEL-2) | GI50 (MOLT-4) | GI50 (HCT-116) | GI50 (SW-620) | GI50 (HL-60) | GI50 (IGROV-1) | GI50 (A498) | GI50 (OVCAR-3) | GI50 (RPMI-8226) | GI50 (SF-295) | GI50 (Malme-3M) | GI50 (MDA-MB-435) | GI50 (Hs-578T) | GI50 (NCI/ADR-RES) | GI50 (RXF 393)
1 | CN/C(=N/C#N)NCc1ccccc1 | > 100 | > 100 µM (inactive) | > 100 µM (inactive) | > 100 µM (inactive) | > 100 µM (inactive) | > 100 µM (inactive) | > 100 µM (inactive) | > 100 µM (inactive) | > 100 µM (inactive) | > 100 µM (inactive) | > 100 µM (inactive) | > 100 µM (inactive) | > 100 µM (inactive) | > 100 µM (inactive) | – | – | – | –
2 | COc1ccc(OC)c(C2CCCc3c2cnc2nc(N)nc(N)c32)c1 (stereo not drawn) | < 0.01 | – | – | > 100 µM (inactive) | < 0.0168 µM (active) | < 0.01 µM (active) | – | < 0.01 µM (active) | < 0.01 µM (active) | – | – | 0.0695 µM (active) | < 0.0143 µM (active) | < 0.0238 µM (active) | < 0.01 µM (active) | > 57.3 µM (inactive) | 1.04 µM (active) | < 0.0129 µM (active)
3 | COc1ccc(C2c3cc4c(c(OC)c3CC3OCC(=O)C32)OCO4)cc1OC (stereo not drawn) | 0.0417 | – | 0.153 µM (active) | 0.78 µM (active) | 0.13 µM (active) | 0.0516 µM (active) | 0.0366 µM (active) | < 0.01 µM (active) | < 0.01 µM (active) | 0.0783 µM (active) | – | 0.0501 µM (active) | 0.0307 µM (active) | – | 0.0146 µM (active) | < 0.01 µM (active) | 0.0377 µM (active) | 0.0212 µM (active)
4 | CC(C)=CC(=O)CC(=O)C(=O)Nc1ccc(C)c(C)c1 | > 100 | – | – | > 100 µM (inactive) | > 100 µM (inactive) | > 100 µM (inactive) | > 100 µM (inactive) | > 100 µM (inactive) | > 100 µM (inactive) | – | > 100 µM (inactive) | > 100 µM (inactive) | > 100 µM (inactive) | > 100 µM (inactive) | – | – | – | –
5 | COC(=O)c1c(O)ccc(O)c1C(C(C)=O)C(C)=O | > 100 | > 100 µM (inactive) | – | > 100 µM (inactive) | > 100 µM (inactive) | > 100 µM (inactive) | > 100 µM (inactive) | > 100 µM (inactive) | > 100 µM (inactive) | > 100 µM (inactive) | > 100 µM (inactive) | > 100 µM (inactive) | > 100 µM (inactive) | > 100 µM (inactive) | – | – | – | > 100 µM (inactive)
6 | Cc1cc(S(=O)(=O)N2CCNNC2=O)c(S)cc1Cl | 56.5 | – | > 100 µM (inactive) | > 100 µM (inactive) | 31.6 µM (inactive) | – | 36.9 µM (inactive) | 39.7 µM (inactive) | 87.9 µM (inactive) | > 100 µM (inactive) | > 100 µM (inactive) | 71.4 µM (inactive) | > 100 µM (inactive) | 17.7 µM (inactive) | > 100 µM (inactive) | > 100 µM (inactive) | > 100 µM (inactive) | 13.7 µM (inactive)
7 | CNc1nnc(CCCCCCCCc2nnc(NC)o2)o1 | 27.8 | 35.3 µM (inactive) | > 100 µM (inactive) | > 100 µM (inactive) | 34.7 µM (inactive) | 20.3 µM (inactive) | 40.7 µM (inactive) | 32.4 µM (inactive) | > 100 µM (inactive) | > 100 µM (inactive) | 25.9 µM (inactive) | – | 75.2 µM (inactive) | – | 63.8 µM (inactive) | – | > 100 µM (inactive) | > 100 µM (inactive)
8 | CNC1=Nc2ccc(Cl)cc2C(c2ccccc2)=NN1C | > 100 | > 100 µM (inactive) | > 100 µM (inactive) | 73.5 µM (inactive) | 36.2 µM (inactive) | 66.7 µM (inactive) | > 100 µM (inactive) | 46 µM (inactive) | > 100 µM (inactive) | 91.2 µM (inactive) | 45.4 µM (inactive) | 31.3 µM (inactive) | 84.7 µM (inactive) | 42.9 µM (inactive) | – | – | – | 17.5 µM (inactive)
